Among the data in ChEMBL document CHEMBL1156713, “NSAIDs revisited: putative molecular basis of their interactions with peroxisome proliferator-activated gamma receptor (PPARgamma)” (Eur J Med Chem, 2008) are Ratio IC50 and fold change (FC) values, retold here.

Experiment [1] can be described thus: Ratio of IC50 for COX1 to IC50 for COX2.
Experiment [2] concerns the target T1, Peroxisome proliferator-activated receptor gamma (Homo sapiens) (UniProt P37231).
T1 sequence (whole entry): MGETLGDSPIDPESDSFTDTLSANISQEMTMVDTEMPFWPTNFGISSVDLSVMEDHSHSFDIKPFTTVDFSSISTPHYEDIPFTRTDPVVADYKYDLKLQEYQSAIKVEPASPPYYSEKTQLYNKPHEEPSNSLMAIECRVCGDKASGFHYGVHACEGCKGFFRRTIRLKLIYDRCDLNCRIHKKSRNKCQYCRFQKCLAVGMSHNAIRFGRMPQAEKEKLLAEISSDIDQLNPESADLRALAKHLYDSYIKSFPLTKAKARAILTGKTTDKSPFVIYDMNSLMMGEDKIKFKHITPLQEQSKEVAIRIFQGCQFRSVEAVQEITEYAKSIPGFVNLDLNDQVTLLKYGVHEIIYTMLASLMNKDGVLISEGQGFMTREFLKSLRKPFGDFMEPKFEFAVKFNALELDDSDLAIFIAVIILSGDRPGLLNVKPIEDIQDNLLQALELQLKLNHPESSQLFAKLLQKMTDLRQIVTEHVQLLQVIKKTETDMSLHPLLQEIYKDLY
Description: Activity at PPARgamma in human Caco-2 cells assessed as luciferase activity at 10000 uM relative to control. It is filed as cell-based.

The target in experiment [3] is T1, Peroxisome proliferator-activated receptor gamma (Homo sapiens). Description: Activity at PPARgamma in human Caco-2 cells assessed as luciferase activity at 100 uM relative to control. The experiment is classed as cell-based.
For experiment [4] the target is unchanged. Kind of experiment: Activity at PPARgamma in human Caco-2 cells assessed as luciferase activity at 1000 uM relative to control. It is filed as cell-based.
The target is the same in experiment [5]. Description: Activity at PPARgamma in human Caco-2 cells assessed as luciferase activity at 50 uM relative to control. It is filed as cell-based.
Experiment [6] shares this target. Kind of experiment: Activity at PPARgamma in human Caco-2 cells assessed as luciferase activity at 400 uM relative to control. It is filed as cell-based.

On to `CSc1ccc(/C=C2/C(C)=C(CC(=O)O)c3cc(F)ccc32)cc1`, for which, in experiment [1], the Ratio IC50 came to 0.258.
`CC(=O)Oc1ccccc1C(=O)O`: in experiment [2], the fold change (FC) stood at 4.02.
As to `CC1=C(CC(=O)O)c2cc(F)ccc2/C1=C\c1ccc([S+](C)[O-])cc1` (configuration not stated), in experiment [3], the fold change (FC) was determined as 2.51.
Regarding `CN1C(C(=O)Nc2ccccn2)=C(O)c2ccccc2S1(=O)=O`, in experiment [4], the fold change (FC) worked out at 1.92.
In the case of `CC(C)Cc1ccc(C(C)C(=O)O)cc1` (configuration not stated), the fold change (FC) in experiment [4] was found to be 5.81.
As for `COc1ccc2c(c1)c(CC(=O)O)c(C)n2C(=O)c1ccc(Cl)cc1`, the fold change (FC) in experiment [5] came to 6.43.
Take `CC1=C(CC(=O)O)c2cc(F)ccc2/C1=C\c1ccc(S(C)(=O)=O)cc1`: the fold change (FC) in experiment [6] was determined as 3.33.
